Reference: US12274704B2, “9,11-secosteroids and the use of 9,11-secosteroids in preparing pharmaceutical compositions for inhibiting inflammation” (Chang Gung University of Science and Technology, priority 2020, dated 2025)

Key:
[1] = test system: fMLF/CB-induced human neutrophils; assay: Elastase release in fMLF/CB-induced human neutrophils; type: cell-based; details: for Elastase Release Inhibition (%) / inhibition at 10 µM: at 10 μM concentration, mean ± S.E.M.; for IC50: mean ± S.E.M. (n = 3 or 4)
Method: (§1) Blood samples were collected from healthy adult donors (20-32 years) via venipuncture in accordance with the standard protocol approved by the local institutional review board. Human neutrophils were isolated from peripheral blood through dextran sedimentation, centrifugation in a Ficoll-Hypaque gradient, and hypotonic lysis of red blood cells.
(§2) In accordance with the above-mentioned protocol, assays were performed to measure superoxide anion generation based on the superoxide dismutase-inhibitable reduction of ferricytochrome c; methoxy-succinyl-alanyl-alanyl-prolyl-valine-p-nitroanilide (MeO-Suc-Ala-Ala-Pro-Val-p-nitroanilide) was used as the enzyme substrate for the detection of elastase release.

[2] = test system: fMLF/CB-induced human neutrophils; assay: Superoxide anion generation in fMLF/CB-induced human neutrophils; type: cell-based; details: for Superoxide Anion Inhibition (%) / inhibition at 10 µM: at 10 μM concentration, mean ± S.E.M.; for IC50: mean ± S.E.M. (n = 3 or 4)
Method: as §1, §2

FPR1 receptor = biological target: T1, FPR1 receptor (Homo sapiens, UniProt P21462); assay: FPR1 receptor binding assay (fNLFNYK, flow cytometry) in human neutrophils; details: 10 μM test substance, fNLFNYK 2 nM
T1 construct: endogenous in cells; host or cells: human neutrophils
T1 sequence (P21462 1-350): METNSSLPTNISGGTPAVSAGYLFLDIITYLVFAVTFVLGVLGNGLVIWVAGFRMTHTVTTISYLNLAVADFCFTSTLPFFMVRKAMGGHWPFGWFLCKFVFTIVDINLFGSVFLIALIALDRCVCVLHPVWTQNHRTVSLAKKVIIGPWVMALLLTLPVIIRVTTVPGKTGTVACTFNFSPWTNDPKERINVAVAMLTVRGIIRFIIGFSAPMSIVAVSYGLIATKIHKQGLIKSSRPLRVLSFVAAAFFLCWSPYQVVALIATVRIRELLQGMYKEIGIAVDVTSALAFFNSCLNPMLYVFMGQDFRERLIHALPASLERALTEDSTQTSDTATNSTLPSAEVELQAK
Method: Receptor binding assays of the present invention were performed via FACScan™ flow Cytometer analysis of N-formyl-Nle-Leu-Phe-Nle-Tyr-Lys-fluorescein (fNLFNYK; a fluorescent analog of N-formylmethionyl-leucyl-phenylalanine (fMLF)) binding to receptor of human neutrophils; The neutrophils were preincubated with test compounds at 4° C. for 5 min and then labelled with fNLFNYK for 30 min, then the cells were immediately analyzed via flow cytometry.
The receptor-binding assay is based on the binding between N-formyl-Nle-Leu-Phe-Nle-Tyr-Lys-fluorescein (fNLFNYK) and the […] receptor of human neutrophil.

Row | IC50 [1] [µM] | IC50 [2] [µM] | binding to FPR1 receptor (inhibition of fNLFNYK binding) (FPR1 receptor) | IC50 ([1]; Homo sapiens, Neutrophil) [µM] | IC50 ([2]; Homo sapiens, Neutrophil) [µM] | Compound | Elastase Release Inhibition (%) [1] [%] | Superoxide Anion Inhibition (%) [2] [%] | inhibition at 10 µM ([1]; Neutrophil) [%] | inhibition at 10 µM ([2]; Neutrophil) [%]
1 | 4.73 ± 0.57 | 8.07 ± 0.53 | – | – | – | leptosterol A [Compound 5] | 86.32 ± 2.91 | 57.93 ± 2.30 | – | –
2 | 7.57 ± 0.4 | 7.07 ± 0.52 | low affinity | – | – | sinleptosterol A [Compound 1] | 65.04 ± 2.76 | 64.76 ± 3.42 | – | –
3 | 3.12 ± 0.07 | 1.97 ± 0.12 | – | 1.63 to 8.07 | 1.63 to 8.07 | C=C(CC[C@@H](C)C1CCC([C@H]2CC=C3C[C@@H](O)CC[C@]3(C)C2=O)[C@]1(C)CCO)C(C)C (stereo partly drawn) [Compound 3, 8αH-3β,11-dihydroxy-24-methylene-9,11-secocholest-5-en-9-one] | – | – | 112 ± 5.01 | 90.5 ± 2.44
4 | 4.29 ± 0.25 | 4.68 ± 0.57 | – | – | – | sinleptosterol B [Compound 2] | 105.09 ± 5.25 | 76.30 ± 5.09 | – | –
5 | > 10 | > 10 | – | – | – | CC(C)[C@@H](C)[C@@]1(C)C[C@@H]1[C@@H](C)[C@H]1CC[C@@H]([C@@H]2CC=C3C[C@@H](O)CC[C@]3(C)C2=O)[C@]1(C)CCO [Compound 7, 3β,11-dihydroxy-9,11-secogorgost-5-en-9-one] | 18.87 ± 3.86 | 10.29 ± 5.42 | – | –
6 | > 10 | 4.09 ± 0.5 | – | – | – | CC(C)[C@@H](C)CC[C@@H](C)[C@H]1CC[C@@H]([C@@H]2CC=C3C[C@@H](O)CC[C@]3(C)C2=O)[C@]1(C)CCO [Compound 6, (24S)-3β,11-dihydroxy-24-methyl-9,11-secocholest-5-en-9-one] | 25.38 ± 6.68 | 60.51 ± 4.06 | – | –
7 | 1.63 ± 0.15 | 2.96 ± 0.91 | – | 1.63 to 8.07 | 1.63 to 8.07 | C=C(CC[C@@H](C)C1CCC([C@@H]2CC=C3C[C@@H](O)CC[C@]3(C)C2=O)[C@]1(C)CCO)C(C)C (stereo partly drawn) [Compound 4, 8βH-3β,11-dihydroxy-24-methylene-9,11-secocholest-5-en-9-one] | – | – | 93.7 ± 1.23 | 91.1 ± 4.51
